Measured values from patent US20090098548A1, “MODULATORS OF ENZYMATIC NUCLEIC ACID ELEMENTS MOBILIZATION” (priority 2004, published 2009).
Entries after “also recorded” stand apart in the source; their conditions may differ.

Columns and labels:
[1] = target: T1, Tn5 transposase (Escherichia coli, UniProt Q46731, E54K/L372P/M56A); format: binding
T1 construct: made in house
Description: For FP analysis, 60 μL reactions were analyzed using the FP protocol on a Wallac Victor V plate reader and a 7% native polyacrylamide gel was used in gel shift assays. For compound screening and subsequent analysis, 1 μL of either DMSO or test compound (final concentration 80 KIM) was added to the synapsis reactions. Compound screening was carried out using a Beckman Coulter Biomek FX in a 384 well format. Compounds identified as hits were rescreened using gel shift assays under synapsis conditions with a 120 μM compound concentration. IC50 values were obtained by fitting inhibitor titration data (0, 0.01, 0.05, 0.1, 0.5, 2.5, 10, 20, 35, 50, 100, 200, 400, 800 μM) to an exponential decay.

[2] = system: restriction enzyme BsmA I; assay: Inhibition of the restriction enzyme BsmA I (compound specificity); format: biochemical; settings: 120 μM compound
Description: Inhibition of the restriction enzyme BsmA I was analyzed to determine compound specificity. Reactions were carried out in 2×NEB Buffer 3 with 160 nM dsDNA, 10 units of BsmA I (New England Biolabs), and 120 μM lead compound. Reactions were incubated at 55° C. for one hour followed by a 20 minute 80° C. heat inactivation step prior to gel electrophoresis. Samples were loaded onto a 9% native polyacrylamide gel and run at 300V for 2.5 hours. Gels were subsequently imaged and quantitated as described for the synapsis assays.

[3] = system: HIV-1
Description: HIV-1 transduction assay and inhibitory screen: 10,000 Ghost-R5 cells per well were plated in a 384 well plate in 49 μL media. 18 hours after plating, 1 μL of inhibitory compound, dissolved in DMSO, was added and gently mixed into solution. Following a 1 hour 37° C. incubation, HIV-1 virions were added in a final infectious volume of 100 μL. 44-48 hours after infection, 87 μL of media was removed from each well, and 13 μL/well of Bright-Glo luciferase detection reagent (Promega) was added. After a 2 minute incubation, the plates were read on a multiwell plate luminometer.
In parallel, cells infected with virus and compound were assayed for luciferase expression by the addition of […] of Bright-Glo reagent, as described above. In this way, effect of the inhibitory compounds on luciferase expression brought about by successful transduction was measured in the constant presence of the compounds.

[4] = system: HIV reverse transcription; assay: Quantitative real-time PCR of reverse transcripts in acutely infected cells; format: cell-based, HIV-1; settings: 75 μM inhibitor, QPCR
Description: Quantitative real-time PCR of reverse transcripts, detection of transduction in newly infected cells, and effect of compounds on established provirus expression in stably infected cells: 10,000 Ghost-R5 cells were plated in 96 well dishes, treated with compound in a total volume of 75 μL, and incubated at 37° C. for 1 hour. Virus was then added in an additional volume of 25 μL. The final infectious volume was 100 μL, the final DMSO concentration was 1%, and the final compound concentration was as indicated. DNA was harvested using the DNeasy kit (Qiagen) 24 hours after infection in the constant presence of inhibitory compounds. Late DNA products of HIV reverse transcription were quantitated using the primers MH531 and MH532, and the probe LTR-P, as described in Burke, T. R. et al., J Med Chem 38:4171-8, 1995, herein incorporated by reference in its entirety.

[5] = system: luciferase expression from proviral DNA; assay: Established provirus luciferase expression in stably infected Ghost-R5 cells; format: cell-based, HIV-1; settings: 75 μM inhibitor, chronically infected cells
Description: To assess the potential effects of the inhibitory compounds on post-integration events such as transcription, translation, and luciferase enzyme stability and activity, Ghost-R5 cells stably infected several weeks earlier with the same virus preparation were incubated with inhibitory compound in 96 well dishes and luciferase activity was monitored 48 hours later by the addition of 100 μL of Bright-Glo reagent to each well, as described above.

[6] = target: HIV-1 integrase (Human immunodeficiency virus type 1 group M subtype B, UniProt P04585); assay: HIV-1 integrase assay (3' strand processing, PAGE); format: biochemical; design: made in house
Description: HIV-1 integrase assay: HIV-1 integrase activity was measured as described in Daniel, R. et al., AIDS Res Hum Retroviruses 20:135-44, 2004 (incorporated by reference in its entirety), except that 1.0 μL of either DMSO or inhibitor were added to the reactions. Briefly, HIV-1 integrase (1 μM, final concentration) was pre-incubated with various concentrations of inhibitor at 30° C. for 30 min. A 21-base pair ^32P labeled substrate (1×10^6 dpm), representing the U5 end of the viral genome, and MnCl2 (10 mM, final concentration) were subsequently added to the reaction. The reaction proceeded for 15 min. at 37° C. The reactions were subsequently quenched using EDTA (10 mM, final concentration), and the products separated on a 20% denaturing polyacrylamide gel.

[7] = system: Ghost-R5 cells; assay: Cytotoxicity assay (Cell Titer Glo); format: cell-based
Description: Cytotoxicity assay: Cytotoxicity assays were performed exactly as the infection assay described above, except media without virus was added following compound addition, and Cell Titer Glo (Promega) viability reagent was added in place of Bright Glo.

Row | Structure (SMILES) | inhibition of transposase assembly (in words) [1] | inhibition of BsmA I activity [2] | inhibition of HIV-1 infection in cells (in words) [3] | effect on reverse transcription (viral DNA synthesis) [4] | effect on luciferase expression from proviral DNA [5] | inhibition of integrase in vitro (in words) [6] | effect on gross cell viability ([7]; 75 μM inhibitor) | LD50 relative to ED50 ([7]; Ghost-R5 cells, cytotoxicity vs transduction)
1 | O=C(/C=C/c1ccccc1)C1=C(O)C(=O)N(c2cccc(C(F)(F)F)c2)C1c1ccc([N+](=O)[O-])cc1 (stereo not shown) [compound 10-F] | inhibit | partially inhibits | inhibit | either uninhibited, or only inhibited to a small extent; also recorded: no significant inhibitory effect | no significant inhibitory effect | inhibit | – | –
2 | O=C(/C=C/c1ccccc1)C1=C(O)C(=O)N(c2ccccc2)C1c1cccc([N+](=O)[O-])c1 (stereo not shown) [compound 10] | inhibit | – | inhibit | either uninhibited, or only inhibited to a small extent; also recorded: no significant inhibitory effect | no significant inhibitory effect | inhibit | no significant inhibitory effect | at least 2 fold
